Experimental data taken from PMC10269895 (Microbiology Spectrum, 2023).
Several values for one entry are separate records, joined by “and”; a condition that tells them apart may be missing. Equal values may be shown once.

What was measured:
[1] = target: T1, CYP3A4 (Homo sapiens, UniProt P08684); test: CYP inhibition IC50 shift assay in human liver microsomes; format: in vitro ADME; settings: concentrations of up to 50 μM
T1 construct: the reaction mixture was prepared with a human liver microsome concentration of 0.1 mg/mL; from tissue; host or cells: human liver microsomes
T1 sequence (P08684 whole entry): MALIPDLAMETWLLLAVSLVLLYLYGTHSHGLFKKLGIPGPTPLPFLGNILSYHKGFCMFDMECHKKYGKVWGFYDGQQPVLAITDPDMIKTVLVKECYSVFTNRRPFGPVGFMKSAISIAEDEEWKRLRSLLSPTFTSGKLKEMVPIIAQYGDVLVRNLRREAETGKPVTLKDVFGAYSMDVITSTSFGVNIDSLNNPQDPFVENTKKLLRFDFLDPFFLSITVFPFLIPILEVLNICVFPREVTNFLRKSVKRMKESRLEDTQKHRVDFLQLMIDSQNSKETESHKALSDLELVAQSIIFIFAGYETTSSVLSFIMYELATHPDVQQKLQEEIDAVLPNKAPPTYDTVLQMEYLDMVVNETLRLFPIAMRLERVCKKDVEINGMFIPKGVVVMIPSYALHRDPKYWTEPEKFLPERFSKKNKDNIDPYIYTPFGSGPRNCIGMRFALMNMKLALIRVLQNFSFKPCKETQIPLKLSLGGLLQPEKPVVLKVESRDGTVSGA
Experimental: To examine the potential for time-dependent and direct competitive CYP3A4 inhibition, the reaction mixture was prepared with a human liver microsome concentration of 0.1 mg/mL. GE81112A was added to final concentrations of 50, 25, 10, 5, 2, 0.4, and 0.08 μM. Mixtures were brought to 37°C, with the addition of an NADPH-generating system (EDTA, 1 mM; MgCl2, 3 mM; β-NADPH, 1 mM; glucose 6-phosphate, 5 mM final concentration) in water to one set of reaction mixtures and water to a second set of reaction mixtures. The reaction mixtures were preincubated for 45 min. A CYP isoform-selective substrate (3 μM midazolam or 50 μM testosterone) was added to the reaction mixtures, and NADPH was added to the second set of reaction mixtures for an additional 10-min incubation period. The reactions were stopped by the addition of 200 μL internal standard solution in acetonitrile.
Both incubation plates (for midazolam and testosterone) were centrifuged at 3,000 rpm for 10 min. The samples were analyzed using LC-MS/MS. Parallel analysis of the CYP3A4 substrate midazolam and the CYP3A4 substrate testosterone was performed. The calculations of 50% inhibitory concentration (IC50) values and IC50 shift values were performed by using 4-paratemeter curve fitting.

[2] = Hepatic in vitro CLint in primary plated hepatocytes; format: in vitro ADME, human
Experimental: For hepatic in vitro CLint studies, primary cultures of cryopreserved human or animal species hepatocytes were seeded at a density of 200,000 cells per well and cultured overnight in collagen-coated 48-well plates in modified Ham’s F-12/William’s E medium. Disappearance kinetics of 5 μM GE81112A were sampled over a 24-h period. Dextromethorphan, midazolam, phenacetin, and tolbutamide (5 μM each) were used as reference compounds. Acetonitrile was used to terminate the incubation, and samples were centrifuged at 2,000 × g for 10 min after the addition of an appropriate internal standard. Supernatants were separated by LC using an AERIS peptide XB-C18 column (3.6 μm, 50 by 2.1 mm; Phenomenex, Aschaffenburg, Germany) with the following gradient of buffer A (water) and buffer B (acetonitrile): 0 to 5 min, 95% buffer A; 20 to 25 min, 5% buffer A. Both solvents were supplemented with 0.1% formic acid. The remaining parent peptide was quantified by LC-MS/MS using a Q Exactive hybrid quadrupole-Orbitrap device (Thermo Fisher Scientific). In vitro hepatic CLint was calculated as dose/area under the concentration-time curve from 0 to 24 h (AUC0–24), where dose is the concentration of GE81112A determined in the time zero sample and classified using reference compounds for low, moderate, or high CLint.

[3] = test system: Salmonella enterica serovar Typhimurium; test: Ames II test; format: cell-based; settings: with and without S9
Experimental: The test was carried out with and without metabolic activation by S9 liver homogenate from rats that had been pretreated with Arcolor, S9 mix. The Salmonella enterica serovar Typhimurium tester strains included the mixed strains TA7001 to TA7006 for detection of base pair substitutions and TA98 for detection of frameshift mutations ([18]). Bacterial cultures (from frozen stocks) were grown overnight and tested for genotype conformation. Test compound diluted in DMSO was tested at 16, 50, 160, 500, 1,600, and 5,000 μg/mL with each strain, both in the presence and in the absence of the exogenous hepatic microsomal fraction (S9) from Aroclor 1254-treated rats (obtained as described above). […] Then, 2.8 mL of a pH indicator solution (Merck KGaA, Darmstadt, Germany) (bromocresol purple) containing trace amounts of histidine and biotin (ready-to-use commercial solution) was added to each well, and all samples were then transferred into a 384-well plate. […] Toxicity was assessed by evaluating the density of growth of the background lawn of bacteria. Mutagenicity was assessed by counting the number of wells with color changes (purple or yellow) or the number of easily visible colonies (revertants).

[4] = PK in mice after a single i.v. administration; format: in vivo, male Swiss mice; settings: 10 mg/kg i.v.
Experimental: In order to determine the PK parameters of GE81112A, a single i.v. dose of 10 mg/kg in solution was administered to male Swiss mice, and plasma, urine, and tissue concentrations were monitored over 24 h (Fig. 2). After i.v. dosing, the different parameters were investigated in more detail. A high distribution of GE81112A in the kidney points toward its excretion via urine. Therefore, urinary tract infections (UTIs) represent the most probable scope of application (Table 2).
Plasma, urine, and tissue concentrations and PK parameters for GE81112 were assessed after a single i.v. administration of a 10-mg/kg solution to male Swiss mice. Briefly, 5 mL/kg of a 2-mg/mL solution of GE81112A was administered i.v. to fed male Swiss mice (weight of 20 g, obtained from Janvier; n = 24 mice). Samples were collected at 0.08, 0.25, 0.5, 1, 2, 4, 8, and 24 h postadministration for bioanalysis. Bioanalytical samples (plasma, urine, and tissue) were analyzed for the concentration of GE81112 using an exploratory LC-MS/MS method, and PK parameters were estimated using the PK software Phoenix WinNonlin v6.4, using a noncompartmental model and a linear trapezoidal interpolation calculation. The studies were ethically approved by the German governmental authority (protocol number FH/2002; Regierungspräsidium Darmstadt).

[5] = Solubility in phosphate buffer (pH 7.4); format: physicochemical
Experimental: (i) Solubility in phosphate buffer (pH 7.4). For calibration, approximately 2 mg of GE81112A was weighed into a HPLC glass vial. DMSO was added to reach a target concentration of 2 mg/mL. Dilutions for calibration (10 μg/mL, 50 μg/mL, and 100 μg/mL) were prepared by adding adjusted volumes of DMSO and were correlated with ultraperformance liquid chromatography (UPLC)-UV peak areas at 220 nm. For solubility determinations, 2 mg of GE81112A was weighed into a HPLC glass vial. Phosphate buffer (pH 7.4) was added to reach a target concentration of 2 mg/mL. The vial was shaken for 16 h at 25°C, with protection from light, on an Eppendorf thermomixer at 600 rpm, followed by centrifugation at 10,000 rpm for 5 min at 25°C and filtration through a 0.45-μm filter. The filtrated supernatant was analyzed (UPLC-UV, λ = 220 nm), and the concentration of the analyte in the filtrate was calculated based on the peak area/real concentration ratio from previous calibration runs.

With `NC(=O)OC[C@@H](O)C[C@H](NC(=O)[C@H]1NCCC[C@H]1O)C(=O)N[C@@H](Cc1c[nH]cn1)C(=O)N[C@H](C(=O)O)[C@H](O)c1cnc(Cl)[nH]1` [GE81112A] the “Direct competitive inhibition of CYPA4” value [1] was “not observed”, the “Time-dependent inhibition of CYPA4” value [1] was “not observed” and the “Intrinsic clearance (CLint)” value ([2]; 5 μM, classified as low) was 0.01 mL/(h × 1 million cells). The “Directly glucuronic acid-conjugated metabolites” value ([2]; human primary plated hepatocytes) was “not observed”, the Mutagenicity [3] was “no mutagenicity” and the “Tissue/plasma ratio, kidney” value [4] was 3.00. The “Tissue/plasma ratio, liver” value [4] was 20 and 20.6, the “Tissue/plasma ratio, lung” value [4] was 0.515 and the “Proportion of dose recovered in urine” value ([4]; over 24 h) was 30%. The clearance ([4]; male, Swiss, mouse, in vivo, iv) was 12.2 mL/min/kg, the Vd ([4]; male, Swiss, mouse, in vivo, iv, read-out: Volume of distribution) was 0.321 L/kg and the half-life ([4]; male, Swiss, mouse, plasma, iv) was 4.5 h. The dose excreted ([4]; male, Swiss, mouse, urine, iv, over 24 h, read-out: Proportion of dose recovered in urine) was 30% and the solubility at 16 h [5] was over 500 µg/mL.
